Reference: the RepoRT retention time repository

test: Waters ACQUITY UPLC BEH C18, 100 × 2.1 mm, 1.7 µm, 40 °C, 0.3 to 0.4 mL/min, estimated dead time 0.63 min; A: water + 0.1% formic acid; B: methanol + 0.1% formic acid; gradient (min/%B) 0/0.5 0.1/0.5 10/80 10.1/99.5 12/99.5; conditions: stereoisomer not certain

Point of comparison: `C=CC1C(OC2OC(CO)C(O)C(O)C2O)OC=C(C(=O)O)C1Cc1nccc2c1[nH]c1ccc(O)cc12` (configuration not stated), LC retention time 3.69 min. Against it:
- CN1C2CCC1CC(OC(=O)C(CO)c1ccccc1)C2 (configuration not stated) — within 1.5-fold, 3.59 min
- O=c1cc(-c2ccccc2)oc2cc(O)c(O)c(O)c12 — 1.7-fold higher, 6.4 min
- O=c1ccc2cc(OC3OC(CO)C(O)C(O)C3O)c(O)cc2o1 (configuration not stated) — within 1.5-fold, 2.87 min
- Nc1ncnc2c1ncn2C1CC(O)C(CO)O1 (configuration not stated) — 1.9-fold lower, 1.93 min
- CC(C)CC(NC(=O)Cc1c[nH]c2ccccc12)C(=O)O (configuration not stated) — 1.7-fold higher, 6.2 min
- CC(CCC1(O)OC2CC3C4CC=C5CC(OC6OC(COC7OC(C)C(O)C(O)C7OC7OC(C)C(O)C(O)C7OC7OC(C)C(O)C(O)C7O)C(O)C(O)C6O)CCC5(C)C4CCC3(C)C2C1C)COC1OC(CO)C(O)C(O)C1O (configuration not stated) — within 1.5-fold, 5.1 min
- CC(C)=CCc1c(O)ccc2c1OCC(c1ccc(O)cc1O)C2=O (configuration not stated) — 2-fold higher, 7.51 min
- COc1cc2ccc(=O)oc2c(OC)c1O — within 1.5-fold, 4.28 min
- COc1cc(C=CC(=O)N2CCC=CC2=O)cc(OC)c1OC — 1.9-fold higher, 6.83 min
- C=CC(O)CC(=NOS(=O)(=O)O)SC1OC(CO)C(O)C(O)C1O (configuration not stated) — 2.1-fold lower, 1.77 min
- CCC(C)C(N)C(=O)NC(C(=O)O)C(C)C (configuration not stated) — within 1.5-fold, 2.55 min
- CC1OC(OC2C(CO)OC(OCC3OC(OC(=O)C45CCC(C)(C)CC4C4=CCC6C7(C)CCC(OC8OCC(O)C(O)C8OC8OC(C)C(O)C(O)C8O)C(C)(CO)C7CCC6(C)C4(C)CC5)C(O)C(O)C3O)C(O)C2O)C(O)C(O)C1O (configuration not stated) — within 1.5-fold, 5.38 min
- COc1c(O)cc(O)c2c(=O)cc(-c3ccccc3)oc12 — 2-fold higher, 7.27 min
- Cc1ccc([N+](=O)[O-])cc1N — 1.6-fold lower, 2.34 min
- CC1OC(OC2C(CO)OC(OC3CCC4(C)C(=CC(O)C5C4CCC4(C)C5CC5OC6(CCC(C)(COC7OC(CO)C(O)C(O)C7O)O6)C(C)C54)C3)C(OC3OC(C)C(O)C(O)C3O)C2O)C(O)C(O)C1O (configuration not stated) — within 1.5-fold, 4.5 min
- COC1OC2c3cc4c(cc3CCN(C)C2c2ccc3c(c21)OCO3)OCO4 (configuration not stated) — within 1.5-fold, 4.65 min
- COc1cc(-c2oc3cc(O)cc(O)c3c(=O)c2OC2OC(CO)C(O)C(O)C2OC2OC(C)C(O)C(O)C2O)ccc1O (configuration not stated) — within 1.5-fold, 3.72 min
- CC1(C)CCC2(C(=O)OC3OC(CO)C(O)C(O)C3O)CCC3(C)C(=CCC4C5(C)CCC(OC6OC(C(=O)O)C(OC7OC(CO)C(O)C7O)C(O)C6O)C(C)(C)C5CCC43C)C2C1 (configuration not stated) — 1.7-fold higher, 6.39 min
- COc1cc2c3c(c1OC)-c1cc4c(cc1CC3N(C)CC2)OCO4 (configuration not stated) — within 1.5-fold, 4.89 min
- CC1OC(Oc2c(-c3ccc(O)c(O)c3)oc3cc(O)cc(O)c3c2=O)C(OC2OC(CO)C(O)C(O)C2O)C(O)C1O (configuration not stated) — within 1.5-fold, 4.15 min
- COc1cc2c(cc1OC)C1C(C)c3ccc(OC)c(OC)c3CN1CC2 (configuration not stated) — within 1.5-fold, 4.86 min
- O=c1ccn(C2OC(CO)C(O)C2O)c(=O)[nH]1 (configuration not stated) — 2-fold lower, 1.8 min
- COC(=O)C=Cc1ccccc1 — within 1.5-fold, 2.87 min
- COc1ccc(-c2coc3cc(OC4OC(COC(=O)CC5CCNCC5)C(O)C(O)C4O)ccc3c2=O)cc1 (configuration not stated) — within 1.5-fold, 4.67 min
- CC1C(=O)OC2C(O)C34C5CC(C(C)(C)C)C36C(OC(=O)C6O)OC4(C(=O)O5)C12O (configuration not stated) — within 1.5-fold, 5.36 min
- CCC1CN2CCc3c([nH]c4ccccc34)C2CC1C(=COC)C(=O)OC (configuration not stated) — 1.6-fold higher, 5.85 min
- O=c1c(-c2ccc(O)cc2)coc2c(C3OC(CO)C(O)C(O)C3O)c(O)ccc12 (configuration not stated) — within 1.5-fold, 3.27 min
- COc1ccc(-c2cc(=O)c3c(O)cc(OC4OC(CO)C(O)C(O)C4OC4OC(C)C(O)C(O)C4O)cc3o2)cc1 (configuration not stated) — within 1.5-fold, 5.26 min
- COc1cc(-c2cc(=O)c3c(O)cc(OC4OC(C(=O)O)C(O)C(O)C4O)cc3o2)cc(OC)c1O (configuration not stated) — within 1.5-fold, 4.54 min
- CC1=C(O)C(=O)CC(OC2CC(C)(C)CC3C4=CCC5C6(C)CCC(OC7OC(C(=O)O)C(O)C(O)C7OC7OC(C(=O)O)C(O)C(O)C7OC7OC(C)C(O)C(O)C7O)C(C)(CO)C6CCC5(C)C4(C)CCC23C)O1 (configuration not stated) — 2.1-fold higher, 7.66 min
- O=C(O)CCCCCCC(=O)O — within 1.5-fold, 4.1 min
- CCC1CN2CCC3(C(=O)Nc4ccccc43)C2CC1C(=COC)C(=O)OC (configuration not stated) — within 1.5-fold, 4.9 min
- CC(=O)OC1C(C(=O)O)OC(OC2C(O)C(O)OC(CO)C2O)C(O)C1OC1OC(CO)C(O)C(O)C1O (configuration not stated) — within 1.5-fold, 5.48 min
- CC1OC(OC2C(Oc3cc(O)c4c(c3)OC(c3ccc(O)c(O)c3)CC4=O)OC(CO)C(O)C2O)C(O)C(O)C1O (configuration not stated) — within 1.5-fold, 4.04 min
- CC1CNC2C(C)C3C(CC4C5CCC6CC(OC7OC(CO)C(OC8OC(CO)C(O)C(OC9OCC(O)C(O)C9O)C8OC8OC(CO)C(O)C(O)C8O)C(O)C7O)CCC6(C)C5CCC43C)OC2(O)C1 (configuration not stated) — within 1.5-fold, 4.02 min
- CC(C)C(NC(=O)Cc1c[nH]c2ccccc12)C(=O)O (configuration not stated) — 1.5-fold higher, 5.61 min
- O=C(O)CC(=O)OCC1OC(Oc2ccc3c(=O)c(-c4ccc(O)cc4)coc3c2)C(O)C(O)C1O (configuration not stated) — within 1.5-fold, 4.1 min
- CC1OC(Oc2cc(O)c3c(=O)c(OC4OC(C)C(O)C(O)C4O)c(-c4ccc(O)c(O)c4)oc3c2)C(O)C(O)C1O (configuration not stated) — within 1.5-fold, 3.67 min
- COc1ccc(Cc2nccc3cc(OC)c(OC)cc23)cc1OC — within 1.5-fold, 4.49 min
- CCCCC(=O)OC1C(CO)OC(OC2(CO)OC(CO)C(OC(C)=O)C2O)C(OC(=O)CCC)C1OC(=O)CCCC (configuration not stated) — 2.2-fold higher, 8.04 min
- CCCCCC(O)C(O)CC=CCCCCCCCC(=O)O (configuration not stated) — 2.3-fold higher, 8.39 min
- Cc1ccc2ccc3ccc(C)nc3c2n1 — within 1.5-fold, 3.47 min
- COc1ccc(-c2coc3cc(O)cc(O)c3c2=O)cc1 — 2.1-fold higher, 7.63 min
- CC1CCC(C(C)C2CCC3C4CC(=O)C5CC(O)CCC5(C)C4CCC23C)=NC1 (configuration not stated) — within 1.5-fold, 4.95 min
- NC(CCC(=O)NC(Cc1ccccc1)C(=O)O)C(=O)O (configuration not stated) — within 1.5-fold, 3.04 min
- CC(C)=CCc1cc(-c2coc3cc(O)c(CC=C(C)C)c(O)c3c2=O)cc(O)c1O — 2.2-fold higher, 8.06 min
- CN1C2CCC1CC(OC(=O)C(O)c1ccccc1)C2 (configuration not stated) — within 1.5-fold, 3.15 min
- NCCCCNC(=O)C=Cc1ccc(O)c(O)c1 — 1.7-fold lower, 2.22 min
- CC(=O)OCC1OC(Oc2cc(O)c3c(=O)cc(-c4ccc(O)cc4)oc3c2)C(O)C(O)C1O (configuration not stated) — within 1.5-fold, 5.14 min
- CSCC(NC(=O)CCC(NCC1(O)OCC(O)C(O)C1O)C(=O)O)C(=O)O (configuration not stated) — 1.7-fold lower, 2.12 min
- COC(=O)C1C(O)CCC2CN3CCc4c([nH]c5ccccc45)C3CC21 (configuration not stated) — within 1.5-fold, 4.35 min
- O=C(O)CCCC(=O)O — within 1.5-fold, 2.53 min
- O=c1c(OC2OCC(O)C(O)C2O)c(-c2ccc(O)c(O)c2)oc2cc(O)cc(O)c12 (configuration not stated) — within 1.5-fold, 4.17 min
- O=C(O)C1OC(Oc2ccc(-c3oc4cc(O)c(C5OC(CO)C(O)C(O)C5O)c(O)c4c(=O)c3C3OC(CO)C(O)C(O)C3O)cc2)C(O)C(O)C1O (configuration not stated) — within 1.5-fold, 4.68 min
- O=C(O)C=Cc1ccccc1 — within 1.5-fold, 5.42 min
- O=C(O)c1cc2c(c3c1c([N+](=O)[O-])cc1ccccc13)OCO2 — 2-fold higher, 7.55 min
- CC1=C(C)C(=O)OC(C(C)C2(O)CCC3C4C5OC5C5(O)CC=CC(=O)C5(C)C4CCC32C)C1 (configuration not stated) — 1.8-fold higher, 6.82 min
- CN(C)CCc1ccc(O)cc1 — 1.8-fold lower, 2.05 min
- COc1cc(-c2oc3cc(O)cc(O)c3c(=O)c2OC2OC(COC3OC(C)C(O)C(O)C3O)C(O)C(O)C2O)ccc1O (configuration not stated) — within 1.5-fold, 4.17 min
- CCC(C)C(NC(=O)C([NH3+])C(C)C)C(=O)[O-] (configuration not stated) — within 1.5-fold, 2.88 min
- CC1CNC2(OC3CC4C5CCC6CC(OC7OC(CO)C(OC8OC(CO)C(O)C(O)C8OC8OC(CO)C(O)C(O)C8O)C(O)C7O)CCC6(C)C5CCC4(C)C3C2C)C(O)C1 (configuration not stated) — within 1.5-fold, 4.24 min
- C=CC12CN(C)C3C4COC(CC41)C1(C(=O)N(OC)c4ccccc41)C32 (configuration not stated) — within 1.5-fold, 4.05 min
- c1ccc2c3ccn4cc5c(cc4c-3nc2c1)CCCC5 — within 1.5-fold, 5.23 min
- COc1cc(O)c2c(c1)OC(c1ccc(O)cc1)CC2=O (configuration not stated) — 2-fold higher, 7.42 min
- CCC1=CC2CN3CCc4c([nH]c5ccccc45)C(C(=O)OC)(C2)C13 (configuration not stated) — within 1.5-fold, 5.04 min
- O=c1c(O)c(-c2ccc(OC3OC(CO)C(O)C(O)C3O)c(O)c2)oc2cc(O)cc(O)c12 (configuration not stated) — within 1.5-fold, 4.51 min
- O=C(O)c1cc(=O)c2ccccc2[nH]1 — within 1.5-fold, 3.11 min
- COc1cc(-c2[o+]c3cc(O)cc(OC4OC(CO)C(O)C(O)C4O)c3cc2OC2OC(CO)C(O)C(O)C2O)cc(OC)c1O (configuration not stated) — within 1.5-fold, 2.81 min
- CC1OC(OCC2OC(Oc3cc(O)c4c(c3)OC(c3ccc(O)cc3)CC4=O)C(O)C(O)C2O)C(O)C(O)C1O (configuration not stated) — within 1.5-fold, 4.28 min
- NC(CCC(=O)NC(Cc1ccc(O)cc1)C(=O)O)C(=O)O (configuration not stated) — 1.6-fold lower, 2.36 min
- O=C(O)C1Cc2c([nH]c3ccccc23)CN1 (configuration not stated) — within 1.5-fold, 3.35 min
- COc1ccc2cc1Oc1ccc(cc1)CC1c3cc(c(OC)cc3CCN1C)Oc1c(OC)c(OC)cc3c1C(C2)N(C)CC3 (configuration not stated) — within 1.5-fold, 4.19 min
- CC(C)=CCc1cc(C2Oc3c(ccc(O)c3CC=C(C)C)C(=O)C2O)ccc1O (configuration not stated) — 2.8-fold higher, 10.2 min
- CCC1(O)C(=O)OCc2c1cc1n(c2=O)Cc2cc3c([N+](=O)[O-])cccc3nc2-1 (configuration not stated) — 1.6-fold higher, 5.87 min
- CC(C)C(O)(C(=O)OCC1CC[N+]2([O-])CCCC12)C(C)O (configuration not stated) — within 1.5-fold, 3.11 min
- CC(CCC1(O)OC2CC3C4CCC5CC(OC6OC(CO)C(OC7OC(CO)C(O)C(O)C7OC7OC(CO)C(O)C(O)C7O)C(O)C6O)CCC5(C)C4CCC3(C)C2C1C)COC1OC(CO)C(O)C(O)C1O (configuration not stated) — within 1.5-fold, 4.91 min
- O=c1c(-c2ccc(O)cc2)coc2cc(OC3OC(CO)C(O)C(O)C3O)ccc12 (configuration not stated) — within 1.5-fold, 3.65 min
- O=C(C=Cc1ccc(O)cc1)OC1C(Oc2c(-c3ccc(O)cc3)oc3cc(O)cc(O)c3c2=O)OC(CO)C(O)C1O (configuration not stated) — within 1.5-fold, 5.32 min
- CCCCCCCCCCCCCCC(O)C(O)C(N)CO (configuration not stated) — 2.1-fold higher, 7.82 min
- COc1cccc(C=CC(=O)O)c1 — 1.6-fold higher, 6.03 min
- CC(C)=CCCC(C)(OC1OC(CO)C(O)C(O)C1O)C1CCC2(C)C1C(O)CC1C3(C)CCC(O)C(C)(C)C3C(OC3OC(CO)C(O)C(O)C3OC3OC(C)C(O)C(O)C3O)CC12C (configuration not stated) — within 1.5-fold, 4.79 min
